Inconclusive results and toxic doses are left out. Rule as the data show it: active = T/C of 150% or more; inactive = T/C below 125%.
Test system: L1210 leukemia ip in BDF1 mice, survival T/C
Assay: NCI In Vivo Anticancer Drug Screen. Data for tumor model L1210 Leukemia (intraperitoneal) in B6D2F1 (BDF1) mice
Conditions: endpoint: mean survival time, schedule: Q01DX001 (ip), vehicle: other, higher = longer survival
Method in brief: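 Transplantable tumor model; survival measured in treated vs vehicle control mice. Value = treated/control.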

Measured: T/C

Nc1nc2c(nnn2C2CC(CO)C(O)C2O)c(=O)[nH]1 (stereo not drawn)
inactive: dose: 100.0 mg/kg/injection 104 % of control | dose: 200.0 mg/kg/injection 105 % of control | dose: 400.0 mg/kg/injection 109 % of control

— PubChem BioAssay AID248 (DTP/NCI, 2004)
